Reference: patent US20210310040A1, “SUSCEPTIBILITY AND RESISTANCE OF MICROORGANISMS” (priority 2017, published 2021)
≈ marks a conversion by molar mass, not a printed value.

Assays:
ATCC 25922 (Pan-S) = test: Susceptibility by perturbation of VOCs, single indicator response after addition of antibiotic; format: cell-based, E. coli
Description: (§1) However, it has been discovered that detection of changes in VOC output of microorganism—in addition to changes in the number of microorganisms—can be detected by the sensor 808 after application of antibiotics. The change in the sensor 808 response can also be correlated to susceptibility of the microorganism to antibiotics. For instance, it has been discovered that after application of antibiotics, certain sensors decrease or show less response at certain concentrations. This change in VOC output can be correlated to the resistance or susceptibility of the microorganisms in the sample to the antibiotic or other substance introduced. In other examples, a change in compound output that remain in solution (not limited to VOCs) may be correlated to a susceptibility of the microorganisms.
For instance, FIG. 48 illustrates an example of the response of the red spectrum of a single indicator (e.g. an indicator containing ZnTPP and Bromophenol Blue) on the sensor 808 in the presence of a sample. As shown, the antibiotic is added at 0.5 hours—in the example of the susceptible microorganism ATCC 25922 (Pan-S), the indicator red component drops off dramatically. The results can be noticed almost a half an hour to an hour after adding the antibiotic—far faster than to notice a general decline in emission of VOCs due to cell death or lack of growth of microorganisms. […]

E. coli AR 84 (ESBL) = test: as above; format: cell-based; conditions: at all concentrations of Ampicillin
Description: as §1
In the resistant strain illustrated in FIG. 48, AR 84 (ESBL), the antibiotic is added at the same time, but the red component of the sensor response continues to increase over time. […] Accordingly, in this embodiment, the sensor 808 response of a single indicator may be monitored. Changes in the slope of the indicator response over time, or decreases in the indicator may be monitored to determine when there is potentially a susceptible organism. […]

K. pneumoniae IS-020 [1] = conditions: cited from earlier work
K. pneumoniae IS-007 [2] = conditions: cited from earlier work
K. pneumoniae IS-020 [3] = test: Colorimetric sensor array susceptibility test on solid growth media; format: cell-based, Klebsiella pneumoniae
Description: (§2) To detect and identify a microorganism by species and/or strain, a sample including the microorganism is placed in a container including culture medium and a colorimetric array, and the temporal response of the sensors to the metabolic products of the microorganism is monitored. Susceptibility can be assessed by inoculating a growth medium including a substance (e.g., an antibiotic) with a microorganism and monitoring the response of the sensors while also monitoring the response of a control (e.g., no antibiotic).
(§3) FIG. 8 depicts an embodiment of a container 800 configured for use to assess a susceptibility or resistance of microorganisms. Container 800 includes base 802 and lid 804, with wells 806 positioned in base 802 opposite colorimetric sensor arrays 808 on lid 804. Microorganisms may be placed in contact with growth medium (e.g., a solid or liquid growth medium) in wells 806. A substance (e.g., a drug such as an antibiotic) may be added to the growth medium. In one example, rows and columns of wells 802 in container 800 may be used for different microorganisms, different substances (e.g., drugs including antibiotics that may potentially kill the microorganisms), and/or different concentrations of substances. After samples are loaded on wells 802, a lid 804 may be positioned over base 802, such that each colorimetric sensor array 808 is proximate a well 806 and in gaseous (or liquid) communication. In other embodiments, various other configurations could be utilized to bring the gas and volatile organic compounds emitted from the sample into gaseous proximity of the sensor array 808 at sufficient gaseous concentrations. The response of the sensor arrays 808 recorded by various detectors may then be assessed in order to determine a susceptibility or resistance of the various antibiotics or substances cultured with the sample. Susceptibility may be assessed via temporal response of the sensors in colorimetric sensor arrays 808 as described herein. Container 800 can be positioned in an apparatus (e.g., apparatus 700) for automated assessment of susceptibility and/or resistance.
(§4) FIGS. 9A-B show susceptibility of K. pneumoniae strains obtained in 6 hours in Muller-Hinton agar (x axis indicates time in hours). Susceptibility is indicated by a lack of metabolic products compared to controls (no antibiotic). […] FIGS. 10A-C show susceptibility of S. aureus strains obtained in 6 hours in Muller-Hinton agar.
(§5) In another susceptibility test, three strains of K. pneumoniae were inoculated onto the solid growth media with no antibiotic (control), piperacillin/tazobactam (PIP/TAZO) at concentrations of 16 ug/ml and 4 ug/ml, Cefepime at 8 ug/ml and Meropenem at 1 ug/ml. […] K. pneumoniae IS-020 was susceptible to all 3 antibiotics in agreement with known susceptibility information that this strain is susceptible to PIP/Tazo at <4 ug/ml, Cefepime <1 ug/ml and Meropenem at <0.25 ug/ml). K. pneumoniae IS-133 is known to be resistant at concentrations of PIP/Tazo below 128 ug/ml, Cefepime below 64 ug/ml and Meropenem below 16 ug/ml.

K. pneumoniae IS-007 [4] = test: as above; format: cell-based, Klebsiella pneumoniae
Description: as §2, §3, §4, §5

K. pneumoniae IS-133 = conditions: cited from earlier work
S. aureus 29213 (MSSA) = test: Susceptibility by perturbation of VOCs, single indicator response with antibiotic; format: cell-based; conditions: Staphylococcus aureus, observed in about 2.5 hours, FIG. 52
Description: as §1
FIG. 52 illustrates two graphs showing the MIC observed for two different antibiotics to S. aureus 29213 (MSSA). The graph on the left portion of FIG. 52 illustrates a MIC of 1 μg/ml to Cefoxitin and the graph on the right illustrations a MIC of 0.5 μg/ml of Vancomycin.

E. coli (AR85) = test: as above; format: cell-based; conditions: Escherichia coli; observed after 2.5 hours, FIG. 50; read-out: minimum inhibitory concentration (MIC)
Description: as §1
FIG. 50 illustrates a graph showing the sensor response of a single sensor 808, dye or indicator to a sample of E. coli incubated in the presence of different concentrations of Ertapenem—a Carbapenem family of antibiotic. As illustrated, the single indicator can not only determine whether this strain of E. coli (AR85) is resistant to Ertapenem, but also the minimum inhibitory concentration (“MIC”). As illustrated, the minimum inhibitory concentration of 2 μg/ml is observed only after 2.5 hours. […]

S. aureus IS-124 [5] = conditions: cited from earlier work
S. aureus IS-123 [6] = conditions: cited from earlier work
S. aureus IS-124 [7] = test: Colorimetric sensor array susceptibility test on solid growth media; format: cell-based, Staphylococcus aureus
Description: as §2, §3, §4
(§6) In another susceptibility test, three strains of S. aureus were inoculated onto the solid growth media. […] S. aureus IS-124 was susceptible to both antibiotics in agreement with known susceptibility information that this strain is susceptible to Oxacillin and Vancomycin.

S. aureus IS-120 [8] = test: as above; format: cell-based, Staphylococcus aureus
Description: as §2, §3, §4, §6

S. aureus IS-123 [9] = test: as above; format: cell-based, Staphylococcus aureus
Description: as §2, §3, §4, §6

S. aureus IS-120 [10] = conditions: cited from earlier work
[11] = PIP/TAZO at 16 ug/ml and 4 ug/ml

In the case of `CC1(C)S[C@@H]2[C@H](NC(=O)[C@H](N)c3ccccc3)C(=O)N2[C@H]1C(=O)O` [Ampicillin], the “sensor response of single indicator after addition of antibiotic (FIG. 49)” value (ATCC 25922 (Pan-S); Ampicillin at 0.5 mg/ml and 1.0 mg/ml) is reported as “same response”, the MIC (ATCC 25922 (Pan-S); Escherichia coli, ATCC25922, single sensor or indicator, FIG. 53) is reported as 1 to 8 mg/L (≈ 2.86 to 22.9 µM) and the “sensor response of single indicator after addition of antibiotic (FIG. 49)” value (E. coli AR 84 (ESBL)) is reported as “decline in sensor response”.

In the case of `CO/N=C(\C(=O)N[C@@H]1C(=O)N2C(C(=O)[O-])=C(C[N+]3(C)CCCC3)CS[C@H]12)c1csc(N)n1` [Cefepime], the “known susceptibility information: concentration at which strain is susceptible” value (K. pneumoniae IS-020 [1]) is given as < 1 µg/mL, the “known susceptibility information: concentration at which strain is susceptible” value (K. pneumoniae IS-007 [2]) is given as < 0.25 µg/mL and the “known susceptibility information: concentration below which strain is resistant” value (K. pneumoniae IS-007 [2]) is given as “below 64 ug/ml”. The “susceptibility or resistance by sensor response compared to control” value (K. pneumoniae IS-020 [3]; Cefepime at 8 ug/ml) was “susceptible”, the “susceptibility or resistance by sensor response compared to control” value (K. pneumoniae IS-007 [4]; Cefepime at 8 ug/ml) was “resistance” and the “known to be resistant at concentrations below” value (shortened to “known to be resistant”) (K. pneumoniae IS-133) was “below 64 ug/ml”.

`CO[C@@]1(NC(=O)Cc2cccs2)C(=O)N2C(C(=O)O)=C(COC(N)=O)CS[C@@H]21` [Cefoxitin] showed an MIC (S. aureus 29213 (MSSA)) of 1 mg/L (≈ 2.34 µM).

`C[C@@H](O)[C@H]1C(=O)N2C(C(=O)O)=C(S[C@@H]3CN[C@H](C(=O)Nc4cccc(C(=O)O)c4)C3)[C@H](C)[C@H]12` [Ertapenem] showed an MIC (E. coli (AR85)) of 2 mg/L (≈ 4.21 µM).

In the case of `C[C@@H](O)[C@H]1C(=O)N2C(C(=O)O)=C(S[C@@H]3CN[C@H](C(=O)N(C)C)C3)[C@H](C)[C@H]12` [Meropenem], the “known susceptibility information: concentration at which strain is susceptible” value (K. pneumoniae IS-020 [1]) is given as < 0.25 µg/mL, the “susceptibility or resistance by sensor response compared to control” value (K. pneumoniae IS-020 [3]; Meropenem at 1 ug/ml) is given as “susceptible” and the “susceptibility or resistance by sensor response compared to control” value (K. pneumoniae IS-007 [4]; Meropenem at 1 ug/ml) is given as “susceptibility”. For the same molecule, the “known to be resistant” value (K. pneumoniae IS-133) was “below 16 ug/ml”.

In the case of `Cc1onc(-c2ccccc2)c1C(=O)N[C@@H]1C(=O)N2[C@@H]1SC(C)(C)[C@@H]2C(=O)O` [Oxacillin], the “known susceptibility information: susceptible or resistant” value (S. aureus IS-124 [5]) is listed as “susceptible”, the “known susceptibility information: concentration below which strain is resistant” value (S. aureus IS-123 [6]) is listed as “below 4 ug/ml” and the “susceptibility or resistance by sensor response” value (S. aureus IS-124 [7]) is listed as “susceptible”. The “susceptibility or resistance by sensor response” value (S. aureus IS-120 [8]; Oxacillin at 2 ug/ml) was “resistance”, the “susceptibility or resistance by sensor response” value (S. aureus IS-123 [9]; Oxacillin at 2 ug/ml) was “resistance” and the “known susceptibility information: concentration below which strain is resistant” value (S. aureus IS-120 [10]) was “below 4 ug/ml”.

For `CN[C@H](CC(C)C)C(=O)N[C@H]1C(=O)N[C@@H](CC(N)=O)C(=O)N[C@H]2C(=O)N[C@H]3C(=O)N[C@H](C(=O)N[C@H](C(=O)O)c4cc(O)cc(O)c4-c4cc3ccc4O)[C@H](O)c3ccc(c(Cl)c3)Oc3cc2cc(c3O[C@@H]2O[C@H](CO)[C@@H](O)[C@H](O)[C@H]2O[C@H]2C[C@](C)(N)[C@H](O)[C@H](C)O2)Oc2ccc(cc2Cl)[C@H]1O` [Vancomycin], the “known susceptibility information: susceptible or resistant” value (S. aureus IS-124 [5]) is given as “susceptible”, the “known susceptibility information: susceptible or resistant” value (S. aureus IS-123 [6]) is given as “susceptible” and the “susceptibility or resistance by sensor response” value (S. aureus IS-124 [7]) is given as “susceptible”. The “susceptibility or resistance by sensor response” value (S. aureus IS-120 [8]; Vancomycin at 1-2 ug/ml) was “susceptibility”, the “susceptibility or resistance by sensor response” value (S. aureus IS-123 [9]; Vancomycin at 1-2 ug/ml) was “susceptibility” and the “known susceptibility information: susceptible or resistant” value (S. aureus IS-120 [10]) was “susceptible”.

In the case of piperacillin/tazobactam [PIP/Tazo], the “known susceptibility information: concentration at which strain is susceptible” value (K. pneumoniae IS-020 [1]) is listed as < 4 µg/mL, the “known susceptibility information: concentration at which strain is susceptible” value (K. pneumoniae IS-007 [2]) is listed as 4 µg/mL and the “susceptibility or resistance by sensor response compared to control” value (K. pneumoniae IS-020 [3]; [11]) is listed as “susceptible”. For the same molecule, the “susceptibility or resistance by sensor response compared to control” value (K. pneumoniae IS-007 [4]; [11]) was “susceptibility” and the “known to be resistant” value (K. pneumoniae IS-133) was “below 128 ug/ml”.
